According to PMC9088062 (2018):

Columns and labels:
[1] = tested on: Tcy2 (DNA, G4) GGTTGGTTGGTTGGTTTT; test: FAM fluorescence quenching; conditions: 10 mM Tris-acetate pH 8.0, room temperature, 25 nM DNA
[2] = tested on: Tcy2 (DNA, G4) GGTTGGTTGGTTGGTTTT; test: circular dichroism; conditions: 10 mM MOPS pH 7.0, room temperature, 5 min; 1 μM DNA, 1 ppm cyromazine
[3] = tested on: Random DNA (DNA, single strand) ATCGACATGTAGCCGATGGC; test: FAM fluorescence quenching; conditions: 10 mM Tris-acetate pH 8.0, room temperature; 25 nM DNA; highest tested 100 ppb
[4] = tested at 50 ppb, no fluorescence change

Compound | binding [1, 4] | also measured
CN(C)[C@@H]1C(=O)C(C(N)=O)=C(O)[C@@]2(O)C(=O)C3=C(O)c4c(O)cccc4[C@@](C)(O)[C@H]3[C@H](O)[C@@H]12 | no | 
CS(=O)(=O)c1ccc([C@@H](O)[C@@H](CO)NC(=O)C(Cl)Cl)cc1 | no | 
Cc1ccc(N=CN(C)C=Nc2ccc(C)cc2C)c(C)c1 | no | 
Cc1nc(C)c(Cl)c(O)c1Cl | no | 
Nc1nc(N)nc(NC2CC2)n1 |  | binding [2]: yes; binding ([1]; 2 min, static quenching): yes; binding [3]: no
O=C(N[C@H](CO)[C@H](O)c1ccc([N+](=O)[O-])cc1)C(Cl)Cl | no | 
c1ccc([C@H]2CN3CCSC3=N2)cc1 | no | 
